Legend:
[1] = test system: normal NK cells expanded with K562-aAPC; experiment: drug sensitivity score (DSS) (DSS units); higher = more sensitive; extreme values may be limits of the assay; details: 72 h; IL-2 2.5 ng/mL
Experimental: (§1)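 Drug sensitivity and resistance testing on K562-aAPC-expanded normal NK cells: 5 concentrations (10-fold steps over a 10,000-fold range), 72 h at 37 °C, viability by CellTiter-Glo normalised to DMSO and benzethonium chloride controls; DSS from the fitted curve.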

YT (IL-2 2.5 ng/mL) [2] = experiment: percent inhibition of viability; higher = more inhibition; details: 72 h
KHYG-1 (IL-2 2.5 ng/mL) [3] = experiment: as above; details: 72 h
[4] = test system: normal primary NK cells, pool 2 (3 donors) (IL-2 2.5 ng/mL); experiment: as above; details: 72 h
NK-YS (IL-2 2.5 ng/mL) [5] = experiment: as above; details: 72 h
[6] = test system: normal primary NK cells, pool 1 (3 donors), resting (IL-2 0 ng/mL); experiment: as above; details: 72 h
[7] = test system: normal primary NK cells, pool 3 (3 donors) (IL-2 2.5 ng/mL); experiment: as above; details: 72 h
KAI3 (IL-2 2.5 ng/mL) [8] = experiment: as above; details: 72 h
NK-92 (IL-2 2.5 ng/mL) [9] = experiment: as above; details: 72 h
DERL-7 (IL-2 2.5 ng/mL) [10] = experiment: as above; details: 72 h
NKL (IL-2 2.5 ng/mL) [11] = experiment: as above; details: 72 h
[12] = test system: normal primary NK cells, pool 1 (3 donors) (IL-2 2.5 ng/mL); experiment: as above; details: 72 h
IMC-1 (IL-2 20 ng/mL) [13] = experiment: as above; details: 72 h
SNK-6 (IL-2 2.5 ng/mL) [14] = experiment: as above; details: 72 h
YT (IL-2 2.5 ng/mL) [15] = experiment: drug sensitivity score (DSS) (DSS units); higher = more sensitive; extreme values may be limits of the assay; details: 72 h
KHYG-1 (IL-2 2.5 ng/mL) [16] = experiment: as above; details: 72 h
[17] = test system: normal primary NK cells, pool 2 (3 donors) (IL-2 2.5 ng/mL); experiment: as above; details: 72 h
NK-YS (IL-2 2.5 ng/mL) [18] = experiment: as above; details: 72 h
[19] = test system: normal primary NK cells, pool 1 (3 donors), resting (IL-2 0 ng/mL); experiment: as above; details: 72 h
[20] = test system: normal primary NK cells, pool 3 (3 donors) (IL-2 2.5 ng/mL); experiment: as above; details: 72 h
KAI3 (IL-2 2.5 ng/mL) [21] = experiment: as above; details: 72 h
NK-92 (IL-2 2.5 ng/mL) [22] = experiment: as above; details: 72 h
DERL-7 (IL-2 2.5 ng/mL) [23] = experiment: as above; details: 72 h
NKL (IL-2 2.5 ng/mL) [24] = experiment: as above; details: 72 h
[25] = test system: normal primary NK cells, pool 1 (3 donors) (IL-2 2.5 ng/mL); experiment: as above; details: 72 h
IMC-1 (IL-2 20 ng/mL) [26] = experiment: as above; details: 72 h
SNK-6 (IL-2 2.5 ng/mL) [27] = experiment: as above; details: 72 h
[28] = test system: normal NK cells expanded with K562-aAPC; experiment: percent inhibition of viability; higher = more inhibition; details: 72 h, IL-2 2.5 ng/mL
Experimental: as §1

CC1(C)NC(=O)N(c2ccc([N+](=O)[O-])c(C(F)(F)F)c2)C1=O [Nilutamide] (max concentration tested 10000 nM)
Details	drug sensitivity score
DERL-7 (IL-2 2.5 ng/mL) [23]	0
IMC-1 (IL-2 20 ng/mL) [26]	2.47
KAI3 (IL-2 2.5 ng/mL) [21]	1.74
KHYG-1 (IL-2 2.5 ng/mL) [16]	0.08
NK-92 (IL-2 2.5 ng/mL) [22]	0.81
NK-YS (IL-2 2.5 ng/mL) [18]	0.84
NKL (IL-2 2.5 ng/mL) [24]	4.46
SNK-6 (IL-2 2.5 ng/mL) [27]	0
YT (IL-2 2.5 ng/mL) [15]	0.93
[1]	0.04
[17]	0
[19]	1.43
[20]	0
[25]	0

percent inhibition of viability [%]
Details	1 nM	10 nM	100 nM	1000 nM	10000 nM
DERL-7 (IL-2 2.5 ng/mL) [10]	-0.2	-1.34	3.47	-0.03	1.75
IMC-1 (IL-2 20 ng/mL) [13]	0	-0.12	2.93	3	40.4
KAI3 (IL-2 2.5 ng/mL) [8]	2	1.75	11.7	3.52	28.1
KHYG-1 (IL-2 2.5 ng/mL) [3]	24.8	-7.14	-0.73	-1.75	15.3
NK-92 (IL-2 2.5 ng/mL) [9]	-0.95	-6.88	4.02	-1.88	24.8
NK-YS (IL-2 2.5 ng/mL) [5]	-5.09	-3.33	-3.78	3.59	17.6
NKL (IL-2 2.5 ng/mL) [11]	10.6	5.58	15.2	17.2	31.6
SNK-6 (IL-2 2.5 ng/mL) [14]	33.2	-24.8	-17.7	-22.5	-4.35
YT (IL-2 2.5 ng/mL) [2]	0.36	-6.16	5.94	-0.37	25
[4]	-2.69	6.11	0.2	1.25	3.42
[6]	-1.3	10.6	10.3	9.07	18.9
[7]	1.57	6.88	3.88	-4.89	-2.84
[12]	-9.72	5.06	-2.38	6.35	1.66
[28]	-10	-7.03	-6.98	-0.84	12.4

COC[C@H](NC(=O)c1cnc(C)s1)C(=O)N[C@@H](COC)C(=O)N[C@@H](Cc1ccccc1)C(=O)[C@@]1(C)CO1 [Oprozomib] (max concentration tested 2500 nM)
Details	drug sensitivity score
DERL-7 (IL-2 2.5 ng/mL) [23]	28.6
IMC-1 (IL-2 20 ng/mL) [26]	18.1
KAI3 (IL-2 2.5 ng/mL) [21]	24.4
KHYG-1 (IL-2 2.5 ng/mL) [16]	20.7
NK-92 (IL-2 2.5 ng/mL) [22]	22.8
NK-YS (IL-2 2.5 ng/mL) [18]	23.7
NKL (IL-2 2.5 ng/mL) [24]	20.2
SNK-6 (IL-2 2.5 ng/mL) [27]	20.4
YT (IL-2 2.5 ng/mL) [15]	20.6
[1]	23.4
[17]	25.4
[19]	25
[20]	24.2
[25]	22

percent inhibition of viability [%]
Details	0.25 nM	2.5 nM	25 nM	250 nM	2500 nM
DERL-7 (IL-2 2.5 ng/mL) [10]	-5.62	7.77	81.9	101	101
IMC-1 (IL-2 20 ng/mL) [13]	-7.29	-3.63	0.39	101	101
KAI3 (IL-2 2.5 ng/mL) [8]	-8.21	-2.86	52.1	105	108
KHYG-1 (IL-2 2.5 ng/mL) [3]	-7.33	-2.59	15.4	108	110
NK-92 (IL-2 2.5 ng/mL) [9]	-20.8	3.65	34.1	107	110
NK-YS (IL-2 2.5 ng/mL) [5]	-6.41	-1.88	43.6	106	109
NKL (IL-2 2.5 ng/mL) [11]	-18	-8.51	12.1	107	110
SNK-6 (IL-2 2.5 ng/mL) [14]	-7.89	-7.58	14.6	101	101
YT (IL-2 2.5 ng/mL) [2]	-8.11	-6.26	14.6	106	110
[4]	-5.27	3.49	62.8	94.6	99.5
[6]	-25.2	0.23	62.4	92.9	97.7
[7]	-7.05	-2.21	50.4	99	100
[12]	-9.35	5.43	36	97.7	99.8
[28]	-1.45	0.37	40.2	101	102

CNC(=O)c1ccc2cc([C@@]3(O)CCn4cncc43)ccc2c1 [Orteronel] (max concentration tested 10000 nM)
Details	drug sensitivity score
DERL-7 (IL-2 2.5 ng/mL) [23]	0
IMC-1 (IL-2 20 ng/mL) [26]	0
KAI3 (IL-2 2.5 ng/mL) [21]	0
KHYG-1 (IL-2 2.5 ng/mL) [16]	0
NK-92 (IL-2 2.5 ng/mL) [22]	0
NK-YS (IL-2 2.5 ng/mL) [18]	0
NKL (IL-2 2.5 ng/mL) [24]	0
SNK-6 (IL-2 2.5 ng/mL) [27]	0
YT (IL-2 2.5 ng/mL) [15]	0
[1]	0
[17]	0
[19]	2.88
[20]	0
[25]	0

percent inhibition of viability [%]
Details	1 nM	10 nM	100 nM	1000 nM	10000 nM
DERL-7 (IL-2 2.5 ng/mL) [10]	-6.34	0.71	-1.69	-1	-1.19
IMC-1 (IL-2 20 ng/mL) [13]	-2.16	2.99	-1.56	2.85	-4.82
KAI3 (IL-2 2.5 ng/mL) [8]	-7.13	-0.59	-2.47	-4.32	-11.3
KHYG-1 (IL-2 2.5 ng/mL) [3]	-5.73	-2.14	-3.55	0.58	-8.03
NK-92 (IL-2 2.5 ng/mL) [9]	-11.2	0.34	-4.73	4.66	-21.7
NK-YS (IL-2 2.5 ng/mL) [5]	-3.4	-3.35	-1.88	-0.21	-5.45
NKL (IL-2 2.5 ng/mL) [11]	-5	-13	-12.1	0.4	-4.85
SNK-6 (IL-2 2.5 ng/mL) [14]	12.8	29.5	-7.71	18.8	-9.24
YT (IL-2 2.5 ng/mL) [2]	-1.09	-0.82	-3	6.56	-4.8
[4]	-7.25	-8.3	-5.11	-0.18	-0.97
[6]	-13	-1.84	15.9	8.47	14.4
[7]	-9.86	-10.5	-4.17	-8.67	-0.69
[12]	-3.93	-7.55	-2.24	5.97	4.41
[28]	-5.71	-7.96	-3.03	-3.58	-6.05

From the supplement of paper PMC5908809
